Measured values published in patent US20240239794A1, “PKC-Theta Modulators” (Exscientia AI Limited, priority 2021, published 2024).
Like-named read-outs stand apart in the source and are kept apart here.

Key:
[1] = target: Recombinant human PKC-theta (His-tagged 362-706) (Homo sapiens (Human), UniProt Q04759); assay: PKC-theta inhibition assay (HTRF KinEASE kit); type: biochemical; conditions: ATP 6.5 μM
Procedure, shortened: (§1)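 HTRF KinEASE kinase assay, buffer supplemented with 10 mM MgCl2, 1 mM DTT, 0.1% Tween 20; enzyme at 10 ng/ml preincubated 30 min on ice with compound. PKC-theta: 525 nM STK substrate, 6.5 μM ATP, 30 min at 25° C; PKC-delta: 243 nM substrate, 5.7 μM ATP, 20 min. IC50 from 4-parameter fit of 10-dose series.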

[2] = system: IL-2 secretion by human effector memory T cells (TEM); assay: Effector memory T cells IL-2 release assay; type: cell-based; conditions: T-cell, human CD4+ TEM cells, CD3/CD28 bead stimulation, 24 h
Procedure, shortened: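 Human CD4+ effector memory T cells (negatively sorted from donor PBMC), 5,000 per well, stimulated with CD3/CD28 beads and 10 semi-log compound doses for 24 h at 37° C, 0.1% DMSO. Supernatant IL-2 measured by HTRF; IC50 from 4-parameter logistic fit; viability checked by flow cytometry.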

[3] = target: Recombinant human PKC-delta (His-tagged 345-676) (Homo sapiens (Human), UniProt Q05655); assay: PKC-delta inhibition assay (HTRF KinEASE kit), PKC-theta/PKC-delta selectivity; type: biochemical; conditions: ratio; for PKC-theta/PKC-delta selectivity: PKC-theta over PKC-delta, HTRF assays; for PKC-theta/PKC-delta selectivity (binned): binned A to G
Procedure, shortened: as §1

[4] = binned A to H, read-out: PKC-theta HTRF pIC50 (binned) (converted)
[5] = binned A to G, read-out: PKC-theta IL2 pIC50 (binned) (converted)
[6] = read-out: PKC-theta IL2 pIC50 (converted)
[7] = read-out: PKC-theta HTRF pIC50 (converted)

Recombinant human PKC-delta (His-tagged 345-676), sequence (Q05655 345-676): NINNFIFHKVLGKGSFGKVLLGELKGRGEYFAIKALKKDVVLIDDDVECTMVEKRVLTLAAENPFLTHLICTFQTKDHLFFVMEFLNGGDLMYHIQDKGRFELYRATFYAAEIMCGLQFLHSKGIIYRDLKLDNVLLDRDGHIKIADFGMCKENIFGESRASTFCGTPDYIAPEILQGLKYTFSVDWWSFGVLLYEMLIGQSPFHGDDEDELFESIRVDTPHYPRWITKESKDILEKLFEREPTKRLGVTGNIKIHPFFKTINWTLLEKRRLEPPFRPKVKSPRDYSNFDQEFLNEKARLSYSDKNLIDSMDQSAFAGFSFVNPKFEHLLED
Recombinant human PKC-theta (His-tagged 362-706), sequence (Q04759 362-706): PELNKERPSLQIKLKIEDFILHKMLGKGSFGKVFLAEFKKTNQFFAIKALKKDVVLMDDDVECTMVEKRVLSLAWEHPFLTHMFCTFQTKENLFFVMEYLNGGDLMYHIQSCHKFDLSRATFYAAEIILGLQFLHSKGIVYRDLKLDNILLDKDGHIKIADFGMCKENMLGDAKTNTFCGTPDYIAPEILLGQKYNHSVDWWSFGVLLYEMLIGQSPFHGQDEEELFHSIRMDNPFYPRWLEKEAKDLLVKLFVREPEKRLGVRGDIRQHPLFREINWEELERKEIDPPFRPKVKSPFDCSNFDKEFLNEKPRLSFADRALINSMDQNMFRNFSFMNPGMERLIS

PKC-theta HTRF pIC50 [1]	IC50 [1, 4]	IC50 [2, 5]	IC50 [2, 6]	PKC-theta/PKC-delta selectivity [3]	PKC-theta/PKC-delta selectivity (binned) [3]	IC50 [1, 7]	SMILES
8.1	3.16 to 10 nM	100 to 316 nM	200 nM	11	D (D means a ratio of between 10 and 20)	–	CC1(O)C(=O)Nc2nccc(-c3cn(C4CCNCC4)c4ccccc34)c21 (stereo not drawn) [Example 12]
–	3.16 to 10 nM	100 to 316 nM	126 nM	19	D (D means a ratio of between 10 and 20)	7.94 nM	CO[C@]1(C)C(=O)Nc2nccc(-c3nn([C@H]4CCNC[C@H]4F)c4ccccc34)c21 (single isomer, unassigned) [Example 91]
8.5	3.16 to 10 nM	31.6 to 100 nM	79.4 nM	11	D (D means a ratio of between 10 and 20)	–	CC1(O)C(=O)Nc2nccc(-c3nn(C4CCNCC4)c4ccccc34)c21 (stereo not drawn) [Example 26]
6.5	100 to 316 nM	316 to 1000 nM	631 nM	33	B (B means a ratio of between 30 and 50)	–	CC1(C)C(=O)Nc2nccc(-c3nn([C@H]4CCNC4)c4cc(C(F)(F)F)ccc34)c21 [Example 74]
8.5	3.16 to 10 nM	31.6 to 100 nM	100 nM	11	D (D means a ratio of between 10 and 20)	–	CC1(O)C(=O)Nc2nccc(-c3nn([C@H]4CCNC[C@@H]4F)c4ccccc34)c21 (stereo partly drawn) [Example 35]
–	1 to 3.16 nM	31.6 to 100 nM	50.1 nM	17	D (D means a ratio of between 10 and 20)	3.16 nM	CC[C@]1(C)C(=O)Nc2nccc(-c3nn([C@H]4CCNC[C@H]4F)c4ccccc34)c21 (single isomer, unassigned) [Example 108]
7.5	10 to 31.6 nM	316 to 1000 nM	631 nM	10	D (D means a ratio of between 10 and 20)	–	CC1(C)C(=O)Nc2nccc(-c3nn([C@H]4CCNC4)c4ccc(F)cc34)c21 [Example 73]
7.8	10 to 31.6 nM	100 to 316 nM	200 nM	13	D (D means a ratio of between 10 and 20)	–	CC1(C)C(=O)Nc2nccc(-c3nn([C@H]4CCCNC4)c4ccccc34)c21 [Example 20]
–	1 to 3.16 nM	31.6 to 100 nM	63.1 nM	13	D (D means a ratio of between 10 and 20)	1.58 nM	CC[C@@]1(O)C(=O)Nc2nccc(-c3nn([C@@H]4CCNC[C@@H]4F)c4ccccc34)c21 (single isomer, unassigned) [Example 83]
8.4	3.16 to 10 nM	31.6 to 100 nM	63.1 nM	9	E (E means a ratio of between 5 and 10)	–	CC1(O)C(=O)Nc2nccc(-c3cn(C4(CC#N)CCC4)c4ccccc34)c21 (stereo not drawn) [Example 24]
8.3	3.16 to 10 nM	31.6 to 100 nM	100 nM	13	D (D means a ratio of between 10 and 20)	–	CCC1(C)C(=O)Nc2nccc(-c3nn([C@H]4CCNC4)c4ccccc34)c21 (stereo partly drawn) [Example 53]
7.3	31.6 to 100 nM	> 1000 nM	1000 nM	9	E (E means a ratio of between 5 and 10)	–	CC1(C)C(=O)Nc2nccc(-c3cn(C4(CC#N)CCC4)c4ccccc34)c21 [Example 21, 2-[1-[3-(3,3-dimethyl-2-oxo-1H-pyrrolo[2,3-b]pyridin-4-yl)indol-1-yl]cyclobutyl]acetonitrile]
–	1 to 3.16 nM	31.6 to 100 nM	63.1 nM	22	C (C means a ratio of between 20 and 30)	2.51 nM	CC[C@@]1(C)C(=O)Nc2nccc(-c3nn([C@@H]4CCNC[C@@H]4F)c4cc(F)ccc34)c21 (single isomer, unassigned) [Example 103]
–	1 to 3.16 nM	31.6 to 100 nM	79.4 nM	32	B (B means a ratio of between 30 and 50)	2.51 nM	CC[C@]1(OC)C(=O)Nc2nccc(-c3nn(CC4(F)CCNCC4)c4ccccc34)c21 (single isomer, unassigned) [Example 89]
7.4	31.6 to 100 nM	> 1000 nM	1000 nM	15	D (D means a ratio of between 10 and 20)	–	CC1(C)C(=O)Nc2nccc(-c3nn(C4(CC#N)COC4)c4ccccc34)c21 [Example 45]
7.7	10 to 31.6 nM	316 to 1000 nM	501 nM	11	D (D means a ratio of between 10 and 20)	–	CC1(C)C(=O)Nc2nccc(-c3nn(C[C@]4(C)COCCN4)c4ccccc34)c21 [Example 109]
9.5	≤ 1 nM	1 to 3.16 nM	1.58 nM	3	F (F means a ratio of between 1 and 5)	–	CNC1(C)C(=O)Nc2nccc(-c3nn(C4(CC#N)CCC4)c4ccccc34)c21 (stereo not drawn) [Example 62]
9.0	≤ 1 nM	10 to 31.6 nM	12.6 nM	11	D (D means a ratio of between 10 and 20)	–	CC1(C)C(=O)Nc2nccc(-c3nn(C4(CF)CCNC4)c4ccccc34)c21 (stereo not drawn) [Example 77]
5.1	> 1000 nM	> 1000 nM	10000 nM	0.2	G (G means a ratio of between 0 and 1)	–	Cc1nn(C2CCNCC2)cc1-c1ccnc2[nH]c(=O)[nH]c12 [Example 2]
7.6	10 to 31.6 nM	> 1000 nM	1000 nM	29	C (C means a ratio of between 20 and 30)	–	CC1(C)C(=O)Nc2nccc(-c3nn(C[C@]4(C)COCCN4)c4cc(F)ccc34)c21 [Example 110]
8.2	3.16 to 10 nM	100 to 316 nM	158 nM	3	F (F means a ratio of between 1 and 5)	–	CC1(C)C(=O)Nc2nccc(-c3nn(C4(CC#N)CNC4)c4ccccc34)c21 [Example 46]

SMILES	PKC-theta HTRF pIC50 [1]	IC50 [1, 4]	IC50 [2, 5]	IC50 [2, 6]	PKC-theta/PKC-delta selectivity [3]	PKC-theta/PKC-delta selectivity (binned) [3]	IC50 [1, 7]
CC[C@]1(C)C(=O)Nc2nccc(-c3nn([C@@H]4CCNC[C@@H]4F)c4ccc(F)cc34)c21 (single isomer, unassigned) [Example 98]	–	10 to 31.6 nM	> 1000 nM	1000 nM	57	A (A means a ratio of between 50 and 120)	31.6 nM
